Patent US7163711B2, “Crystalline α-D-glucosyl α-D-galactoside, saccharide composition comprising the same, process for producing the same, and uses thereof” (Kabushiki Kaisha Hayashibara Seibutsu Kagaku Kenkyujo, priority 2002, dated 2007)
Blank lines part the entries; values can stand above or below the compound they belong to.

Key:
Type in all cases: physicochemical
[1] = Saturated concentration for water; conditions: shaken 48 hours, d.s.b.
Protocol: A surplus volume of the crystalline powder of α-D-glucosyl α-D-galactoside obtained in Experiment 3 was added to 10 ml of distilled water, shaken at 25° C. or 40° C. for 48 hours, and filtrated to collect a crystalline powder, which is more than the solubility, by using a 0.45 μm filter, followed by collecting two filtrates (saturated solutions). Moisture content of the filtrates was measured by using a desiccating agent method described in “Standard Methods of Analysis in Food Safety Regulation, Chemistry” published by Japan Food Hygiene Association under the editorship of Ministry of Health, Labor and Welfare, 1991, to examine a saturated concentration of α-D-glucosyl α-D-galactoside.

[2] = Moisture absorption test on crystalline α-D-glucosyl α-D-galactoside; conditions: 25° C.
From the text: (§1) A half gram aliquots of the crystalline powder of α-D-glucosyl α-D-galactoside obtained in Experiment 3 were placed in aluminum weighing cans, which had been precisely weighed in advance, and each weighing can was weighed. The weight of each weighing can was subtracted from the total weight to calculate the starting weight of the crystalline powder of α-D-glucosyl α-D-galactoside. Each weighing can with the crystalline powder of α-D-glucosyl α-D-galactoside was placed in a glass desiccator which the relative humidity was controlled to a level of 33–99% in advance, and stored at 25° C. for one to seven days while keeping at the desired humidity. After the moisture absorption test, each weighing can had been precisely weighted and calculated for increasing weight to obtain a moisture absorption level (%). In the test, the crystalline powder was macroscopically observed.

[3] = Moisture absorption test on amorphous α-D-glucosyl α-D-galactoside; conditions: 25° C.; for Diffraction spectrum: powdery X-ray diffraction
Protocol: The crystalline powder of α-D-glucosyl α-D-galactoside obtained in Experiment 3 was examined for crystallinity by powdery X-ray diffraction analysis by using “GEIGERFLEX RAD-IIB™”, an X-ray diffraction analyzer using Cuk α ray commercialized by Rigaku Corporation, Tokyo, Japan, to obtain a spectrum as shown in FIG. 3 having peaks with diffraction angles (2θ) of at least 13.4°, 17.4°, 19.7°, and 22.3°. Crystallinity of the crystallized powder was calculated to be about 72.5% by using “Program for Crystallinity Analysis by Ruland method”, a computer program installed in the analyzer.
as §1
The crystalline powder of α-D-glucosyl α-D-galactoside obtained in Experiment 3 was dissolved in water to obtain an aqueous solution with a concentration of 30% (w/w). The resultant aqueous solution was frozen and dried into an amorphous powder of α-D-glucosyl α-D-galactoside. Similar as in Experiment 10, the obtained amorphous powder was placed in aluminum weighing cans, and the cans were placed in a glass desiccator which the relative humidity was controlled to a level of 43–90% in advance, and stored at 25° C. for one to seven days while keeping at the desired humidity. After the moisture absorption test, moisture absorption level (%) was calculated similarly as in Experiment 10. In the test, the appearance of each powder was macroscopically observed. Samples after a storage for seven days were confirmed for their appearance by a powdery X-ray diffraction analysis in Experiment 4, and samples with crystals were examined for their crystallinity.

[4] = relative humidity 33%, storage one day
[5] = relative humidity 33%, storage seven days
[6] = relative humidity 33%, storage three days
[7] = relative humidity 33%, storage two days
[8] = relative humidity 43%, storage one day
[9] = relative humidity 43%, storage seven days
[10] = relative humidity 43%, storage three days
[11] = relative humidity 43%, storage two days
[12] = relative humidity 53%, storage one day
[13] = relative humidity 53%, storage seven days
[14] = relative humidity 53%, storage three days
[15] = relative humidity 53%, storage two days
[16] = relative humidity 60%, storage one day
[17] = relative humidity 60%, storage seven days
[18] = relative humidity 60%, storage three days
[19] = relative humidity 60%, storage two days
[20] = relative humidity 75%, storage one day
[21] = relative humidity 75%, storage seven days
[22] = relative humidity 75%, storage three days
[23] = relative humidity 75%, storage two days
[24] = relative humidity 84%, storage one day
[25] = relative humidity 84%, storage seven days
[26] = relative humidity 84%, storage three days
[27] = relative humidity 84%, storage two days
[28] = relative humidity 90%, storage one day
[29] = relative humidity 90%, storage seven days
[30] = relative humidity 90%, storage three days
[31] = relative humidity 90%, storage two days
[32] = relative humidity 43%, storage for one day
[33] = relative humidity 43%, storage for seven days
[34] = relative humidity 53%, storage for one day
[35] = relative humidity 53%, storage for seven days
[36] = relative humidity 60%, storage for one day
[37] = relative humidity 60%, storage for seven days
[38] = relative humidity 90%, storage for one day
[39] = relative humidity 90%, storage for seven days

saturated concentration in water ([1]; 25° C.): 68.9 % (w/w) | saturated concentration in water ([1]; 40° C.): 71.8 % (w/w) | A(%) Moisture absorption level [2, 4]: 0.0% | Appearance [2, 4]: Unchanged | A(%) Moisture absorption level [2, 5]: 0.0% | Appearance [2, 5]: Unchanged | A(%) Moisture absorption level [2, 6]: 0.0% | Appearance [2, 6]: Unchanged | A(%) Moisture absorption level [2, 7]: 0.0% | Appearance [2, 7]: Unchanged | A(%) Moisture absorption level [2, 8]: 0.0% | Appearance [2, 8]: Unchanged | A(%) Moisture absorption level [2, 9]: 0.0% | Appearance [2, 9]: Unchanged | A(%) Moisture absorption level [2, 10]: 0.0% | Appearance [2, 10]: Unchanged | A(%) Moisture absorption level [2, 11]: 0.0% | Appearance [2, 11]: Unchanged | A(%) Moisture absorption level [2, 12]: 0.0% | Appearance [2, 12]: Unchanged | A(%) Moisture absorption level [2, 13]: 0.1% | Appearance [2, 13]: Unchanged | A(%) Moisture absorption level [2, 14]: 0.0% | Appearance [2, 14]: Unchanged | A(%) Moisture absorption level [2, 15]: 0.0% | Appearance [2, 15]: Unchanged | A(%) Moisture absorption level [2, 16]: 0.1% | Appearance [2, 16]: Unchanged | A(%) Moisture absorption level [2, 17]: 0.2% | Appearance [2, 17]: Unchanged | A(%) Moisture absorption level [2, 18]: 0.1% | Appearance [2, 18]: Unchanged | A(%) Moisture absorption level [2, 19]: 0.1% | Appearance [2, 19]: Unchanged | A(%) Moisture absorption level [2, 20]: 0.1% | Appearance [2, 20]: Unchanged | A(%) Moisture absorption level [2, 21]: 0.2% | Appearance [2, 21]: Unchanged | A(%) Moisture absorption level [2, 22]: 0.1% | Appearance [2, 22]: Unchanged | A(%) Moisture absorption level [2, 23]: 0.1% | Appearance [2, 23]: Unchanged | A(%) Moisture absorption level [2, 24]: 3.2% | Appearance [2, 24]: Hardened | A(%) Moisture absorption level [2, 25]: 11.0% | Appearance [2, 25]: Hardened | A(%) Moisture absorption level [2, 26]: 6.1% | Appearance [2, 26]: Hardened | A(%) Moisture absorption level [2, 27]: 4.4% | Appearance [2, 27]: Hardened | A(%) Moisture absorption level [2, 28]: 6.9% | Appearance [2, 28]: p.d. | A(%) Moisture absorption level [2, 29]: 42.1% | Appearance [2, 29]: Deliquescence | A(%) Moisture absorption level [2, 30]: 19.2% | Appearance [2, 30]: Deliquescence | A(%) Moisture absorption level [2, 31]: 11.8% | Appearance [2, 31]: p.d. | moisture absorption (in words) ([2]; relative humidity of 75% or lower, one to seven days): did not absorb moisture
SMILES: OC[C@H]1O[C@H](O[C@H]2O[C@H](CO)[C@@H](O)[C@H](O)[C@H]2O)[C@H](O)[C@@H](O)[C@H]1O [crystalline α-D-glucosyl α-D-galactoside, α-D-glucosyl α-D-galactoside]

A(%)* Moisture absorption level [3, 32]: 4.5% | Appearance (macroscopically observed) [3, 32]: Solidified | A(%)* Moisture absorption level [3, 33]: 6.3% | Appearance (macroscopically observed) [3, 33]: Solidified | Diffraction spectrum [3, 33]: Amorphous | A(%)* Moisture absorption level [3, 34]: 3.5% | Appearance (macroscopically observed) [3, 34]: Wet on the surface | A(%)* Moisture absorption level [3, 35]: 1.8% | Appearance (macroscopically observed) [3, 35]: Hardened | Crystallinity [3, 35]: 67% | Diffraction spectrum [3, 35]: Crystal monohydrate | A(%)* Moisture absorption level [3, 36]: 3.1% | Appearance (macroscopically observed) [3, 36]: Wet on the surface | A(%)* Moisture absorption level [3, 37]: 2.0% | Appearance (macroscopically observed) [3, 37]: Hardened | Crystallinity [3, 37]: 71% | Diffraction spectrum [3, 37]: Crystal monohydrate | A(%)* Moisture absorption level [3, 38]: 13.2% | Appearance (macroscopically observed) [3, 38]: Partial deliquescence | A(%)* Moisture absorption level [3, 39]: 36.2% | Appearance (macroscopically observed) [3, 39]: Deliquescence | moisture absorption (in words) ([3]; relative humidity of 43–90%, one to seven days): remarkably absorbed moisture
SMILES: OC[C@H]1O[C@H](O[C@H]2O[C@H](CO)[C@@H](O)[C@H](O)[C@H]2O)[C@H](O)[C@@H](O)[C@H]1O [amorphous α-D-glucosyl α-D-galactoside, α-D-glucosyl α-D-galactoside]
